This is an account of results in paper PMC7236056 (ACS Medicinal Chemistry Letters, 2020).

Assay [1] concerns colorectal cancer cell lines (HT-29, SW480). As to the kind of experiment: MTT cell viability, colorectal cancer cell lines. In kind it is cell-based. The settings on record: Homo sapiens, 72 h, read-out: inhibition rate in the colon cancer cell lines.
Assay [2] concerns paraganglioma (PGL) cell lines (PTJ64i, PTJ86i). The experiment in a line: MTT cell viability, paraganglioma cell lines. In kind it is cell-based. The settings on record: Homo sapiens, 72 h, read-out: inhibition rate in the PGL cell lines.
The subject of a further assay is CPT1A. As to the kind of experiment: Expression of PPARα target gene CPT1A by RTqPCR. In kind it is cell-based, human. The note with it: HepG2, 48 h; test compounds 0.5 µM, GW7647 2 µM. On the technique in general: Real-time PCR tracks product formation cycle by cycle.
In assay [3] the test system is eight human cancer cell lines (AsPC-1, BxPC-3, Capan-2, HT-29, SW480, PTJ64i, PTJ86i, A498). The experiment in a line: MTT cell viability, eight human cancer cell lines, single concentration. In kind it is cell-based. The note with it: 75 μM, 72 h.
A further assay has as its target T1, hPPARγ (Homo sapiens, UniProt P37231).
T1 sequence (P37231 238-503 limits assumed): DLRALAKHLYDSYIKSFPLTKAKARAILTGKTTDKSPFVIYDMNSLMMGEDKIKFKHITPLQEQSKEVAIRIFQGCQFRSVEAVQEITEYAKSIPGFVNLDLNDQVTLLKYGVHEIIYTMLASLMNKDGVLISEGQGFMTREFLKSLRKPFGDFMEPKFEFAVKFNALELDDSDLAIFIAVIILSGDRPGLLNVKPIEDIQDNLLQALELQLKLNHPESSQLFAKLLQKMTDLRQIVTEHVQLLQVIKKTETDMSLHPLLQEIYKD
The experiment in a line: GAL-4 PPAR transactivation assay, agonist activity. The settings on record: 1, 2.5 and 5 μM; HepG2; data not shown.

The next assay addresses T2, hPPARα (Homo sapiens, UniProt Q07869).
T2 sequence (Q07869 239-466 limits assumed): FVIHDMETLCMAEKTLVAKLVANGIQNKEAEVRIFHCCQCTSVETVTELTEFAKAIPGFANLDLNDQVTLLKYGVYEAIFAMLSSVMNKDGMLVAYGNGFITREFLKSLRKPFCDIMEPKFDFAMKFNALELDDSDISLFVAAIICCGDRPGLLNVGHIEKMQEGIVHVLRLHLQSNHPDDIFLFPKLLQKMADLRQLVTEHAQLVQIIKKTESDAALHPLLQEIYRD
The experiment in a line: GAL-4 PPAR transactivation assay, agonist activity. The settings on record: 1, 2.5 and 5 μM; HepG2.

The structures appear in SMILES notation.

What is called inhibition is the change of the read-out against control, counted positive when it falls. Consider `CC(C)(Oc1ccc(CCOc2ccc(NC(=O)c3ccccc3)cc2)cc1)C(=O)NS(=O)(=O)c1ccccc1` [10e], for which the inhibition at 75 µM in assay [1] lay in the range of 52 to 98%; in assay [2], 84 to 98%.

For the compound `CC(C)(Sc1ccc(CCN(CCCCC2CCCCC2)C(=O)NC2CCCCC2)cc1)C(=O)O` [GW7647], the “CPT1A mRNA expression, compound alone” value in the assay on CPT1A was “robustly stimulated CPT1A expression”.

Turning to `Cc1cccc(Nc2cc(Cl)nc(SCC(=O)O)n2)c1C` [Wy-14,643], in assay [3], the “effect on cell viability across the tumor cell lines tested” value is on record as “did not affect cell viability”.

Consider `CC(C)(Oc1ccc(CCOc2ccc(/N=N/c3ccccc3)cc2)cc1)C(=O)NS(=O)(=O)c1ccccc1` [2b], for which the “agonist activity on PPARγ” value at hPPARγ is recorded as “no detectable PPARα/γ activity”. Besides, the “agonist activity on PPARα” value at hPPARα is “no detectable PPARα/γ activity”.

As for `CC(C)(Oc1ccc(CCOc2ccc(/N=N/c3ccccc3)cc2)cc1)C(=O)NS(=O)(=O)c1ccc(Cl)cc1` [3c], the inhibition at 75 µM in assay [1] fell in the range of 52 to 98%; in assay [2], 84 to 98%.

As to `CCC(=O)NC[C@H](Cc1ccc(OCCc2nc(-c3ccccc3)oc2C)cc1)N/C(C)=C\C(=O)c1ccc(C(F)(F)F)cc1` [GW6471, reference compound], in assay [3], the “effect on cell viability across the tumor cell lines tested” value is on record as “showed antiproliferative activities”. The inhibition at 75 µM in assay [2] lay within 85 to 92%.

In the case of `CC(C)(Oc1ccc(CCOc2ccc(/N=N/c3ccccc3)cc2)cc1)C(=O)NS(=O)(=O)c1ccc([N+](=O)[O-])cc1` [3d], the inhibition at 75 µM in assay [1] is 52 to 98%; in assay [2], 84 to 98%.
